Measured values published in ChEMBL document CHEMBL4308841, “Synthesis, in vitro antiproliferative activity, and kinase inhibitory effects of pyrazole-containing diarylureas and diarylamides” (Eur J Med Chem, 2018).

Key:
[1] = system: NCI-H522; assay: Growth inhibition of human NCI-H522 cells assessed as cell growth at 1 uM incubated for 48 hrs by sulforhodamine B assay relative to control; type: functional; conditions: NCI-H522, 48 h, read-out: Activity
[2] = system: A498; assay: Growth inhibition of human A498 cells assessed as cell growth at 1 uM incubated for 48 hrs by sulforhodamine B assay relative to control; type: functional; conditions: A498, 48 h, read-out: Activity
[3] = system: SR; assay: Growth inhibition of human SR cells assessed as cell growth at 1 uM incubated for 48 hrs by sulforhodamine B assay relative to control; type: functional; conditions: read-out: Activity
[4] = system: MDA-MB-231; assay: Growth inhibition of human MDA-MB-231 cells incubated for 48 hrs by sulforhodamine B assay; type: functional, cell-based; conditions: MDA-MB-231, 48 h
[5] = system: OVCAR-8; assay: Growth inhibition of human OVCAR8 cells assessed as cell growth at 0.01 uM incubated for 48 hrs by sulforhodamine B assay relative to control; type: functional; conditions: OVCAR-8, 48 h, read-out: Activity
[6] = system: SF-295; assay: Growth inhibition of human SF295 cells assessed as cell growth at 100 uM incubated for 48 hrs by sulforhodamine B assay relative to control; type: functional; conditions: SF-295, 48 h, read-out: Activity
[7] = system: NCI-H322M; assay: Growth inhibition of human NCI-H322M cells assessed as cell growth at 100 uM incubated for 48 hrs by sulforhodamine B assay relative to control; type: functional; conditions: read-out: Activity
[8] = system: SW-620; assay: Growth inhibition of human SW620 cells assessed as cell growth at 100 uM incubated for 48 hrs by sulforhodamine B assay relative to control; type: functional; conditions: SW-620, 48 h, read-out: Activity
[9] = system: HCT-15; assay: Growth inhibition of human HCT15 cells assessed as cell growth at 0.1 uM incubated for 48 hrs by sulforhodamine B assay relative to control; type: functional; conditions: HCT-15, 48 h, read-out: Activity
[10] = system: T47D; assay: Growth inhibition of human T47D cells assessed as cell growth at 0.01 uM incubated for 48 hrs by sulforhodamine B assay relative to control; type: functional; conditions: read-out: Activity
[11] = system: HOP-62; assay: Growth inhibition of human HOP62 cells incubated for 48 hrs by sulforhodamine B assay; type: functional, cell-based; conditions: HOP-62, 48 h
[12] = system: NCI-H460; assay: Growth inhibition of human NCI-H460 cells assessed as cell growth at 0.01 uM incubated for 48 hrs by sulforhodamine B assay relative to control; type: functional; conditions: NCI-H460, 48 h, read-out: Activity
[13] = system: Hs-578T; assay: Growth inhibition of human Hs578T cells assessed as cell growth at 0.1 uM incubated for 48 hrs by sulforhodamine B assay relative to control; type: functional; conditions: read-out: Activity
[14] = system: MCF7; assay: Growth inhibition of human MCF7 cells incubated for 48 hrs by sulforhodamine B assay; type: functional, cell-based; conditions: MCF7, 48 h
[15] = system: M14; assay: Growth inhibition of human M14 cells incubated for 48 hrs by sulforhodamine B assay; type: functional, cell-based; conditions: M14, 48 h
[16] = system: UACC-62; assay: Growth inhibition of human UACC62 cells assessed as cell growth at 1 uM incubated for 48 hrs by sulforhodamine B assay relative to control; type: functional; conditions: UACC-62, 48 h, read-out: Activity
[17] = system: Malme-3M; assay: Growth inhibition of human MALME-3M cells assessed as cell growth at 0.01 uM incubated for 48 hrs by sulforhodamine B assay relative to control; type: functional; conditions: read-out: Activity
[18] = system: A498; assay: Growth inhibition of human A498 cells incubated for 48 hrs by sulforhodamine B assay; type: functional, cell-based; conditions: A498, 48 h
[19] = system: HT-29; assay: Growth inhibition of human HT-29 cells assessed as cell growth at 0.01 uM incubated for 48 hrs by sulforhodamine B assay relative to control; type: functional; conditions: HT-29, 48 h, read-out: Activity
[20] = system: Hs-578T; assay: Growth inhibition of human Hs578T cells assessed as cell growth at 1 uM incubated for 48 hrs by sulforhodamine B assay relative to control; type: functional; conditions: read-out: Activity
[21] = system: NCI-H460; assay: Growth inhibition of human NCI-H460 cells assessed as cell growth at 0.1 uM incubated for 48 hrs by sulforhodamine B assay relative to control; type: functional; conditions: NCI-H460, 48 h, read-out: Activity
[22] = system: SNB-19; assay: Growth inhibition of human SNB19 cells incubated for 48 hrs by sulforhodamine B assay; type: functional, cell-based; conditions: SNB-19, 48 h
[23] = system: OVCAR-4; assay: Growth inhibition of human OVCAR4 cells incubated for 48 hrs by sulforhodamine B assay; type: functional, cell-based; conditions: OVCAR-4, 48 h
[24] = system: SK-MEL-28; assay: Growth inhibition of human SK-MEL-28 cells incubated for 48 hrs by sulforhodamine B assay; type: functional, cell-based; conditions: SK-MEL-28, 48 h
[25] = system: HCC 2998; assay: Growth inhibition of human HCC2998 cells assessed as cell growth at 0.01 uM incubated for 48 hrs by sulforhodamine B assay relative to control; type: functional; conditions: HCC 2998, 48 h, read-out: Activity
[26] = system: BT-549; assay: Growth inhibition of human BT549 cells assessed as cell growth at 1 uM incubated for 48 hrs by sulforhodamine B assay relative to control; type: functional; conditions: BT-549, 48 h, read-out: Activity
[27] = system: Malme-3M; assay: Growth inhibition of human MALME-3M cells assessed as cell growth at 0.1 uM incubated for 48 hrs by sulforhodamine B assay relative to control; type: functional; conditions: read-out: Activity
[28] = read-out: pLC50 (the source's name) (converted)
[29] = read-out: LC50 (the source's name)

SMILES: COc1cc(Cl)cc(-c2nn(-c3cccc(NC(=O)Nc4cc(C(F)(F)F)cc(C(F)(F)F)c4)c3)cc2-c2ccncc2)c1
- growth at 1 µM [1]: 18%
- growth at 1 µM [2]: 37%
- growth at 1 µM [3]: 28%
- IC50 [4]: 460 nM
- GI50 ([4]; read-out: GI50): 456 nM
- TGI ([4]; read-out: TGI): 1860 nM
- GI50 ([4]; read-out: pGI50 (converted)): 457 nM
- CC50 [4, 28]: 5370 nM
- TGI ([4]; read-out: pTGI (converted)): 1860 nM
- growth at 0.01 µM [5]: 99%
- growth at 100 µM [6]: -63%
- growth at 100 µM [7]: -78%
- growth at 100 µM [8]: -72%
- growth at 0.1 µM [9]: 90%
- growth at 0.01 µM [10]: 96%
- IC50 [11]: 650 nM
- GI50 ([11]; read-out: GI50): 648 nM
- CC50 [11, 29]: 7140 nM
- TGI ([11]; read-out: TGI): 2390 nM
- GI50 ([11]; read-out: pGI50 (converted)): 646 nM
- CC50 [11, 28]: 7080 nM
- TGI ([11]; read-out: pTGI (converted)): 2400 nM
- growth at 0.01 µM [12]: 101%
- growth at 0.1 µM [13]: 95%
- IC50 [14]: 380 nM
- GI50 ([14]; read-out: GI50): 354 nM
- LC50 ([14]; read-out: LC50): > 100000 nM
- TGI ([14]; read-out: TGI): 9320 nM
- GI50 ([14]; read-out: pGI50 (converted)): 380 nM
- LC50 ([14]; read-out: pLC50 (converted)): > 100000 nM
- TGI ([14]; read-out: pTGI (converted)): 9330 nM
- IC50 [15]: 440 nM
- GI50 ([15]; read-out: GI50): 442 nM
- CC50 [15, 29]: 93.9 nM
- TGI ([15]; read-out: TGI): 2160 nM
- GI50 ([15]; read-out: pGI50 (converted)): 447 nM
- CC50 [15, 28]: 9330 nM
- TGI ([15]; read-out: pTGI (converted)): 2140 nM
- growth at 1 µM [16]: 18%
- growth at 0.01 µM [17]: 92%
- IC50 [18]: 390 nM
- GI50 ([18]; read-out: GI50): 350 nM
- CC50 [18, 29]: 33.4 nM
- TGI ([18]; read-out: TGI): 3590 nM
- GI50 ([18]; read-out: pGI50 (converted)): 389 nM
- CC50 [18, 28]: 33100 nM
- TGI ([18]; read-out: pTGI (converted)): 3630 nM
- growth at 0.01 µM [19]: 102%
- growth at 1 µM [20]: 50%
- growth at 0.1 µM [21]: 101%
- IC50 [22]: 420 nM
- GI50 ([22]; read-out: GI50): 420 nM
- CC50 [22, 29]: > 100000 nM
- TGI ([22]; read-out: TGI): 11300 nM
- GI50 ([22]; read-out: pGI50 (converted)): 417 nM
- CC50 [22, 28]: > 100000 nM
- TGI ([22]; read-out: pTGI (converted)): 11200 nM
- IC50 [23]: 500 nM
- GI50 ([23]; read-out: GI50): 501 nM
- CC50 [23, 29]: > 100000 nM
- TGI ([23]; read-out: TGI): 21400 nM
- GI50 ([23]; read-out: pGI50 (converted)): 501 nM
- CC50 [23, 28]: > 100000 nM
- TGI ([23]; read-out: pTGI (converted)): 26900 nM
- IC50 [24]: 900 nM
- GI50 ([24]; read-out: GI50): 900 nM
- TGI ([24]; read-out: TGI): 4930 nM
- GI50 ([24]; read-out: pGI50 (converted)): 891 nM
- CC50 [24, 28]: 69200 nM
- TGI ([24]; read-out: pTGI (converted)): 4900 nM
- growth at 0.01 µM [25]: 95%
- growth at 1 µM [26]: 54%
- growth at 0.1 µM [27]: 87%
